Measured values taken from US20200109421A1, “METHODS FOR INTEGRATION OF TRANSGENE DNA” (Selexis S.A., priority 2018, published 2020).
Entries after “also recorded” stand apart in the source; their conditions may differ.

How the values were obtained:
SURE CHO-M cell line [1] = assay: Cell cycle analysis of CHO cells by propidium iodide DNA content flow cytometry; assay type: cell-based, Chinese hamster; settings: overnight in medium; DMSO 1%, APH 1 μM, MTX 1 uM, NOCO 1.5 μM
Experimental: SURE CHO-M cell™ line (SELEXIS SA, Switzerland, see: U.S. Pat. Nos. 7,129,062, 8,252,917 and 9,879,297, and U.S. Patent Applications No. 20110061117 and 20120231449, the disclosures of which are incorporated herein by reference in their entirety) were cultivated overnight in asynchronous condition (FIG. 1A) or in presence of DMSO 1%, aphidicholin (APH) 1 μM, methotrexate (MTX) 1 uM or nocodazole (NOCO) 1.5 μM (FIG. 1B). Cells were then fixed in ethanol and labelled overnight at 4° C. with propidium iodide (PI; 50 μg/ml, Sigma) in presence of RNAse (0.5 μg/ml, Sigma). DNA content index histograms were acquired on Guava EasyCyte System® using INCYTE acquisition software. Each phase of cell cycle was defined according to the drug treatment as G1 arrest (DMSO); S phase (APH); G2 (NOCO). The % of G0/G1, % of S and % of G2/M arrested cells were then calculated (see Table FIG. 1B).
Cell cycle was analyzed by flow cytometry at release (18 h with drug) and at 1, 2, 4, 6 and 8 h after release. Released cells were then further cultivated according to the indicated time points. Asynchronous (control) cells were included as controls. DNA content index histograms were acquired on Guava EasyCyte System® (MILLIPORE) using INCYTE acquisition software.

SURE CHO-M cells [2] = assay: Cell synchronization combined with DNA repair pathway modulators: CSA of trastuzumab IgG-producing cells; assay type: cell-based, Chinese hamster; settings: for proportion of high-expressing cells: immediately after transfection, in combination with S and G2 arrest
Experimental: Freshly transfected cells were incubated in presence of various NHEJ, HR, MMEJ or SSA modulators immediately after electroporation to identify the DNA repair pathway involved in transgene integration and depending on the targeted cell cycle phase.

SURE CHO-M cells [3] = assay: Cell synchronization with plasmid or CRISPR/Cas-mediated transgene integration: fed-batch PCD; parameters: species or system Chinese hamster; settings: G1 synchronization, DMSO 1% overnight, plasmid-based and CRISPR/Cas9-mediated expression system
Experimental: Asynchronous and synchronized cells were transfected with IgG-trastuzumab expressing vectors and cultivated under antibiotic selection for 10 days.
Stable expressing pools were subcultivated in complete culture medium for 4 subsequent passages in spin tubes (5 ml wv) (FIG. 4B). Cell density (Cv·ml^−1) and IgG titer values (μg·ml^−1) were determined. […] Growth and performance of each stable established IgG-expressing pool was then evaluated in spin tube in a 9-day fedbatch process using Acto CHO A+B feed (GE Healthcare). Fed-batch cultures were initiated at cell concentrations of 0.3×10^6 cells/ml in 5 mL working volume run. (FIG. 4C). The specific IgG productivity was determined as the slope of IgG concentration versus the integral number of viable cells (IVCD) and expressed as pg per cell and per day (pcd). Histograms represented the fold change of productivity per cell per day (PCD) obtained for DMSO and 4° C. pre-treatment compared to their respective untreated-controls cells.

SURE CHO-M cell line [4] = assay: eGFP expression after transfection of synchronized CHO cells (cytometer imager); assay type: cell-based, Chinese hamster; settings: day 2 and day 11 after transfection; synchronized prior to transfection vs non-synchronized cells
Experimental: (§1) Asynchronous and synchronized SURE CHO-M cell™ lines (SELEXIS SA, Switzerland) were transfected with eGFP- (FIG. 1E) or Trastuzumab IgG-expression SLX-vectors (FIG. 1F and FIG. 1G) immediately after drugs release. Transfection was done by microporation (NEON TRANSFECTION SYSTEM, INVITROGEN), generating a heterogeneous pool of transfected cells. 24 h after transfection, 5 ug/ml puromycin selection agent (GIBCO) was added to the BalanCD medium (IRVINE) supplemented with 6 mM L-Glutamine (HYCLONE). Expression pools performances were then evaluated for GFP or IgG at different time points after transfection. The percentage and GFP fluorescence mean intensity (FMI) level were evaluated on cytometer imager at d2 and d11 post-transfection (CELIGO S; NEXCELOM). Results were represented as fold change of control cells (FIG. 1E; histograms).

SURE CHO-M cell line [5] = assay: Cell Secretion Assay (CSA) of Trastuzumab IgG-producing cells after synchronization; assay type: cell-based, Chinese hamster; settings: 2 days post-transfection; vs asynchronized cells
Experimental: as §1
The percentage and secretion mean intensity (SMI) of IgG-producing cells were determined at d2 (FIG. 1F) and d10 (FIG. 1G) post-transfection using Cell Secretion Assay methods (CSA).

SURE CHO-M cells [6] = assay: Cell recovery during antibiotic selection after synchronization and DNA repair modulation; settings: S- and G2-synchronized cells, with DNA repair pathways inhibition
Experimental: SURE CHO-M cells™ (SELEXIS SA, Switzerland) were synchronized overnight with DMSO 1%, aphidicolin (APH) 1 μM, methotrexate (MTX) 1 μM or nocodazole (NOCO) 1.5 μM. After 18 hrs of incubation, cells were centrifuged, rinse twice into PBS 1× and resuspended in complete culture medium. Asynchronous and synchronized cells were transfected with trastuzumab IgG-plasmid expressing vector. Freshly transfected cells were then immediately resuspended and incubated overnight in presence of NU7441, RI-1, RS-1 or Olaparib small molecules (drugs provided by TOCRIS, CALBIOCHEM or APEXBIO TECHNOLOGY) before to change medium and start antibiotic selection.
Cell recovery behavior during antibiotic selection was monitored for each transfection condition and recorded as + or − signs.

SURE CHO-M cells [7] = assay: IgG transfection in presence of Sbf1 restriction enzyme and NU7441: CSA of stable cells; assay type: cell-based, Chinese hamster; settings: Sbf1 present
Experimental: Asynchronized (AS) or G1-synchronized (G1) SURE CHO-M cells' (SELEXIS SA, Switzerland) were transfected with trastuzumab IgG-expressing vector in presence of Sbf1 restriction enzyme. Transfected cells were incubated overnight in presence of the NHEJ inhibitor—NU7441 ([…])—before change of medium and start antibiotic selection. The histograms show cell secretion assay (CSA) as percentage (white bar) and secretion mean intensity (SMI) (grey bar) of total producing cells (FIG. 6A) or of the high-, medium- and low-producing subpopulations (FIG. 6B) performed on stable trastuzumab-expressing cells.

SURE CHO-M cells [8] = assay: Nu7441 treatment before transfection: productivity in 9-day fedbatch (ELISA titer, PCD); assay type: cell-based, Chinese hamster; settings: 0.4 μM just before transfection
Experimental: SURE CHO-M cells™ (SELEXIS SA, Switzerland) were treated with 0.4 μM of DNA-PK inhibitor Nu7441 (TOCRIS) just before transfection of 3 μg of the antibody DNA fragment, respectively Trastuzumab (Tras) or Adalimumab (ADA). Transfection was done by microporation (Neon Transfection system, Invitrogen). 24 h after transfection, 5 μg/ml puromycin selection agent (Gibco) was added.
Growth and performance of the 6 top clones of each enzymatic condition were evaluated in spin tube in a 9-day fedbatch process using Acto CHO A+B feed (GE Healthcare). Fed-batch cultures were initiated at cell concentrations of 0.3×10^6 cells/ml in 5 mL working volume run. Cell density and cell viability along the process were evaluated by using a Guava System (Millipore) and supernatant sample was collected. Antibody product titer was evaluated by ELISA capture assay against the collected supernatant, at day 9 of the fedbatch process. Productivity per cell per day (PCD) was calculated as function of titer and viable cell density during the fedbatch process.

[9] = after 10 days of antibiotic selection, NU7441 0.4 mM overnight, AS_NU and G1_NU vs AS and G1

For `C[C@@]1(CO)[C@H](O)CC[C@@]2(C)[C@H]1CC[C@H]1C[C@@H]3C[C@@]12CC[C@]3(O)CO` [APH, aphidicolin], the “cell cycle phase at which cells are arrested” value (shortened to “cell cycle phase”) (SURE CHO-M cell line [1]) was “S phase”.

For `C[S+](C)[O-]` [DMSO, dimethyl sulfoxide], the “high-producing subpopulation (% HP) of stable IgG-producing cells” value (SURE CHO-M cells [2]; after 10 days of antibiotic selection, G1-synchronized, with or without DNA repair modulators, vs asynchronous controls) was “increase”, the “cell cycle phase” value (SURE CHO-M cell line [1]) was “G1 arrest; also recorded: G1 phase” and the “productivity (fold change of PCD vs untreated control cells)” value (SURE CHO-M cells [3]) was “significant increase”.

`CN(Cc1cnc2nc(N)nc(N)c2n1)c1ccc(C(=O)N[C@@H](CCC(=O)O)C(=O)O)cc1` [MTX, methotrexate] was tested, and the “mean intensity of GFP-expressing cells” value (SURE CHO-M cell line [4]) was “higher”, the “percentage of GFP-expressing cells” value (SURE CHO-M cell line [4]) was “higher” and the “% of Trastuzumab-expressing cells” value (SURE CHO-M cell line [5]) was “higher”. For the same compound, the “mean intensity of Trastuzumab-expressing cells” value (SURE CHO-M cell line [5]) was “higher”, the “cytotoxic effect (cells failed to pass the antibiotic selection)” value (SURE CHO-M cells [6]) was “lethal cytotoxic effect” and the “cell cycle phase” value (SURE CHO-M cell line [1]) was “G1/S phase”.

With `COC(=O)Nc1nc2ccc(C(=O)c3cccs3)cc2[nH]1` [NOCO, nocodazole] the “mean intensity of GFP-expressing cells” value (SURE CHO-M cell line [4]) was “higher”, the “percentage of GFP-expressing cells” value (SURE CHO-M cell line [4]) was “higher” and the “% of Trastuzumab-expressing cells” value (SURE CHO-M cell line [5]) was “higher”. For the same compound, the “mean intensity of Trastuzumab-expressing cells” value (SURE CHO-M cell line [5]) was “higher” and the “cytotoxic effect (cells failed to pass the antibiotic selection)” value (SURE CHO-M cells [6]) was “lethal cytotoxic effect”.

`O=c1cc(N2CCOCC2)oc2c(-c3cccc4c3sc3ccccc34)cccc12` [Nu7441] was tested, and the “high- and medium-producing cells subpopulations” value (SURE CHO-M cells [7]; G1 phase synchronized and Nu7441 treated, after 10 days selection) was “significant increase”, the “mean intensity of IgG-expressing cells” value (SURE CHO-M cells [7]; [9]) was “higher” and the “percentage of IgG-expressing cells” value (SURE CHO-M cells [7]; [9]) was “higher”. The “proportion of IgG-producing cells” value (SURE CHO-M cells [7]; combination with G1 phase synchronization (G1_NU compared to AS)) was “best”, the “proportion of high-expressing cells” value (SURE CHO-M cells [2]) was “higher” and the “productivity per cell per day (PCD)” value (SURE CHO-M cells [8]; Trastuzumab) was “clear increased”. The “productivity per cell per day (PCD)” value (SURE CHO-M cells [8]; adalimumab) was “less evident” and the “productivity (antibody product titer)” value (SURE CHO-M cells [8]; both antibody molecules (Trastuzumab, Adalimumab)) was “increase”.

`O=C(c1cc(Cc2n[nH]c(=O)c3ccccc23)ccc1F)N1CCN(C(=O)C2CC2)CC1` [Olaparib] was tested, and the “proportion of high-expressing cells” value (SURE CHO-M cells [2]) was “higher”.

With `O=C1C(Cl)=C(N2CCOCC2)C(=O)N1c1ccc(Cl)c(Cl)c1` [RI-1] the “proportion of high-expressing cells” value (SURE CHO-M cells [2]) was “higher”.
